Assay [1] deals with type I collagen deposition in primary lung fibroblasts derived from human tissue. Kind of assay: Type I collagen deposition (scar-in-a-jar) high content screening assay. The assay is classed as cell-based. The note with it: Primary lung fibroblast, 72 h, human pulmonary fibroblasts, 96-well, TGFβ-1 1 ng/ml 72 h, collagen intensity, read-out: mean pIC50, type I collagen deposition (scar-in-a-jar) (converted). The protocol: Cellular type I collagen deposition was measured by adapting a published method; scar-in-a-jar (Chen et al., 2009) to primary lung fibroblasts derived from human tissue and combining with high content analysis to permit fluorescent quantification of collagen deposited in the extracellular matrix (ECM). The human biological samples were sourced ethically and their research use was in accord with the terms of the informed consents under an IRB/EC approved protocol. Human pulmonary fibroblasts were maintained in DMEM media (Gibco, Catalogue No 21969) supplemented with 4 mM L-glutamine (Gibco Catalogue No 25030-024) and 100/heat inactivated FBS (Gibco #10270-106, Lot #42F6663K) at 37° C. in 10%/CO2. Cells were harvested and seeded at 10,000 cells per well (85 μL/well) into black walled 96 well imaging plates (BD Falcon, 353219) in assay media (0.4%/heat inactivated FBS, 4 mM L-glutamine) and incubated overnight at 37° C., 10%/CO2.
Test compounds were dissolved in 1000/DMSO to give 10 mM stocks which were further diluted (serial 1:3) to generate 10 point concentration response curves. Assay media was supplemented with 112.5 mg/ml Ficoll 70 (Sigma, Catalogue No F2878), 75 mg/ml Ficoll 400 (Sigma, Catalogue No F4375) and 50 µg/ml ascorbic acid (Sigma, Catalogue No A8960). 3 μL compound were added to 297 μL assay media (10× compound final concentration in 1% DMSO).
Diluted compounds (15 μL) were transferred to plates containing cells and incubated for 3 h at 37° C. in 10% CO2. Transforming growth factor (TGF)β-1 (R&D Systems, Catalogue No 100-B/CF) was reconstituted according to manufacturer's instructions to give 10 µg/mL (stock) and further diluted (1 in 3333) in assay media containing Ficoll and ascorbic acid. 50 μL TGFβ-1 was added to cell plates (1 ng/ml final) and cells incubated for 72 h at 37° C. in 10% CO2.
Media was removed and cells were fixed with 50 µL/well 100% ice-cold methanol (2 min). Methanol was decanted and cells washed with PBS (3×). To permeabilise, cells were incubated with PBS containing 0.1% Triton X 100 for 90 sec, followed by PBS wash (3×). Cells were incubated with mouse anti human type I collagen monoclonal antibody (Sigma, Catalogue No C2456) diluted 1:1000 in PBS overnight at 4° C. Cells were washed with PBS containing 0.05% Tween-20 (3×) and incubated with secondary alexa fluor 488 goat-anti-mouse antibody (Invitrogen, Catalogue No A11001, 1 in 500 in PBS) and Hoechst 33342 (Sigma, Catalogue No H21492), 1 in 10000 in PBS) for 1 h at RT, prior to washing with PBS containing 0.05% Tween (×3) before finally adding 200 µL/well PBS.
Type I collagen immunoreactivity was detected using the Thermofisher CellInsight NXT set to excitation and emission wavelengths for DAPI and FITC with exposure adjusted to appropriate levels. Images were analysed using Cellomics Studio software (Version 6.6.0, build 8153) and computational algorithms to quantify “collagen intensity” and “cell count”.
Data analysis was performed by determining % response values for test compounds relative to the maximum (TGFβ-1 stimulation) fitting a ‘log(inhibitor) vs. response-Variable slope (four parameters)’ curve and recording pIC50 (inverse of Log IC50) values for test compounds.

The subject of assay [2] is phosphorylated Akt at serine 473 (pAKTs473) in primary lung fibroblasts derived from explanted tissue. Kind of assay: Phosphorylated Akt (Ser473) in vitro immunoassay (MSD), fibroblasts from explanted tissue. The assay is classed as cell-based. Particulars: Homo sapiens, Primary lung fibroblast, 96-well, compound 2 h, PDGF-BB 10 ng/ml 15 min, read-out: mean pIC50, pAKTs473 immunoassay (converted). The text has this:
Immunoassay using the Meso Scale Discovery (MSD) platform to measure the effect of test compounds on phosphorylated Akt at serine 473 (pAKTs473) in primary lung fibroblasts derived from explanted tissue. The human biological samples were sourced ethically and their research use was in accord with the terms of the informed consents under an IRB/EC approved protocol.
Human lung fibroblasts were routinely maintained in Dulbecco's Modified Eagle Medium (DMEM; Gibco, catalogue no. 21969-035) supplemented with 10% foetal bovine serum (FBS (heat-inactivated); Gibco, catalogue no. 10270-106) and 4 mM L-glutamine (Gibco, catalogue no. 25030024) at 37° C. in 10% CO2.
For the assay, cells were harvested using Trypsin/EDTA (Gibco, catalogue no. 25300-062), resuspended to give 1.2×10^5 cells/ml and 100 ul/well seeded into 96-well plates (Corning, Catalogue No. 3596) in DMEM supplemented with 0.4% FCS and 4 mM L-glutamine and incubated overnight at 37° C. in 10% CO2.
Test compounds were dissolved in 100% DMSO to give 10 mM stock solutions and serially diluted to generate a 10-point concentration response curve. Compounds were further diluted 100-fold into 96-well V-bottom polypropylene plates (Greiner, Catalogue no. 651201) with DMEM supplemented with 0.4% FCS and 4 mM L-glutamine to give 100 µM top compound concentration in 1% DMSO.
Compounds were further diluted 10-fold by transfer to 96-well plates containing cells ([…] top concentration, 0.1% DMSO final) and incubated for 2 h at 37° C. in 10% CO2, prior to stimulation with platelet-derived growth factor (PDGF)-BB (Gibco, Catalogue no. PHG0041) at 10 ng/ml (final) for 15 min at 37° C. in 10% CO2. Cell assay plates were then incubated on ice and treated with lysis buffer (Cell Signalling Technology, Catalogue No. 9803) containing protease and phosphatase inhibitors (Halt, Thermo Scientific, Catalogue No. 78444) for 30 min.
MSD plates (MSD, Phospho(Ser473)/Total Akt Whole Cell Lysate Kit, Catalogue No. K15100D-3) were blocked with 1×blocking buffer as per the manufacturer's instructions at RT with shaking, followed by washing (×3) with Tris-buffered saline containing 0.05% Tween-20 (TBST). Cell lysates (30 ul) were added and MSD plates incubated for 1 h at RT with shaking.
Plates were washed with TBST (×3), prior to addition of SULFO-TAG Anti-Total Akt Antibody as per the manufacturer's instructions and shaken at RT for 1 h. After washing with 1×TBST (×3), read buffer (1×) (MSD, Catalogue No. R92TC-1) was added as per the manufacturer's instructions before detecting electrochemiluminescence (MSD Sector Imager 600).
Data analysis was performed using non-linear regression analysis to determine IC50 values for test compounds. Minimum (no PDGF-BB stimulation) and maximum responses (+PDGF-BB stimulation) were monitored for assay quality control.

Take `CC[C@H]1COCCN1c1cc(CS(=O)(=O)N(CC)CC)nc(-c2ccc3[nH]c(CNC)cc3n2)n1` [Example 30, (S)—N,N-diethyl-1-(6-(3-ethylmorpholino)-2-(2-((methylamino)methyl)-1H-pyrrolo[3,2-b]pyridin-5-yl)pyrimidin-4-yl)methanesulfonamide]: the IC50 in assay [1] was < 3.98 µM. Regarding `CCCS(=O)(=O)Cc1cc(N2CCOC[C@@H]2CC)nc(-c2ccc3[nH]c(CNC)cc3n2)n1` [Example 32, (S)-1-(5-(4-(3-ethylmorpholino)-6-((propylsulfonyl)methyl)pyrimidin-2-yl)-1H-pyrrolo[3,2-b]pyridin-2-yl)-N-methylmethanamine], the IC50 in assay [1] was < 3.98 µM; in assay [2] it was < 100 nM. For `CC[C@H]1COCCN1c1cc(CS(=O)(=O)CC)nc(-c2ccc3[nH]c(CNC)cc3n2)n1` [Example 33, (S)-1-(5-(4-(3-ethylmorpholino)-6-((ethylsulfonyl)methyl)pyrimidin-2-yl)-1H-pyrrolo[3,2-b]pyridin-2-yl)-N-methylmethanamine], in assay [1], the IC50 is < 3.98 µM.

Values taken from patent US20220306623A1, “PYRIDYL OR PYRIMIDYL MTOR KINASE INHIBITORS” (GLAXOSMITHKLINE INTELLECTUAL PROPERTY DEVELOPMENT LIMITED, priority 2019, published 2022).
